Here are results for six compounds from US8835440B2, “Cyclic pyrimidin-4-carboxamides as CCR2 receptor antagonists for treatment of inflammation, asthma and COPD” (Boehringer Ingelheim International GmbH, priority 2008, dated 2014).

The target of this test is T1, CCR2 (Homo sapiens, UniProt P41597).
T1 construct: Membranes were prepared from THP-1 cells; endogenous in cells; host or cells: THP-1 cells (membrane preparation)
T1 sequence (P41597 1-360 isoform P41597-2): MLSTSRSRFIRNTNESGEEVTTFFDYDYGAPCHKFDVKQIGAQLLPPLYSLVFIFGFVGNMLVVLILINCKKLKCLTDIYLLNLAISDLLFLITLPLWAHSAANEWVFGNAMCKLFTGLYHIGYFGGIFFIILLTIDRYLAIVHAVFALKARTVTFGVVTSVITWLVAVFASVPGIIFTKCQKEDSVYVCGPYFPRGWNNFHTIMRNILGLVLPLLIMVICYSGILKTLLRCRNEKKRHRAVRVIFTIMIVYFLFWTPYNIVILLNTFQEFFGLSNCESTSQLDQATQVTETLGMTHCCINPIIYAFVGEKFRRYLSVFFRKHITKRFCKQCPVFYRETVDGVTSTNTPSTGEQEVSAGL
The test is described as follows: CCR2 receptor membrane binding assay ([125I]MCP-1, THP-1 cell membranes, SPA beads). Conditions: for remaining activity at 10 µM: @ 10 μM test compound, THP-1 membranes, read-out: CCR2 % ctrl @ 10 μM; for Ki: dissociation constant hKi, [125I]MCP-1 binding to THP-1 membranes. In short, it runs like this: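 hKi was derived by iterative law-of-mass-action fitting of scintillation counts read at 8 h. Compound (1% DMSO final) competed with ca. 25000 cpm [125I]MCP-1 for THP-1 membranes bound to WGA-PVT beads. Buffer: 25 mM HEPES pH 7.2, 5 mM MgCl2, 0.5 mM CaCl2, 0.2% BSA.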

By Ki is commonly meant a dissociation constant, usually derived from enzyme kinetics or from competition with a known ligand. Low readings indicate a stronger hold on the target, high ones a looser hold on the target.

`Cc1c(NC[C@H]2CCC[C@@H](c3ccccc3)C2)ncnc1C(=O)N1CCC(N2CCC(N(C)S(C)(=O)=O)CC2)CC1` [Example 146]: the remaining activity at 10 µM was 7% and the Ki was 3 nM.
With `Cc1c(NC[C@@H]2CCC[C@@H](c3ccccc3)C2)ncnc1C(=O)N1CCC(N2CCC(N(C)S(C)(=O)=O)CC2)CC1` [Example 158], the remaining activity at 10 µM turned out to be 0% and the Ki is 6 nM.
As to `Cc1nc(NCC2CCC(c3ccc(C(F)(F)F)cc3)O2)c(C)c(C(=O)N2CCC(N3CCC(N(C)S(C)(=O)=O)CC3)CC2)n1` (stereo not shown) [Example 159ib], affinity was put at a Ki of 15 nM.
As for `Cc1nc(NC[C@H]2CC[C@H](c3ccc(Cl)cc3)O2)c(C)c(C(=O)N2CCC(N3CCC(N(C)S(C)(=O)=O)CC3)CC2)n1` [Example 159ua], affinity was put at a Ki of 23 nM.
In the case of `Cc1cc(COc2ncnc(C(=O)N3CCC(N4CCC(N(C)S(C)(=O)=O)CC4)CC3)c2C)ccc1Cl` [Example 292], the remaining activity at 10 µM amounted to 15% and the Ki was found to be 136 nM.
As to `CCC(C)NC(=O)C1CCN(C2CCN(C(=O)c3ncnc(NCc4ccc(C(C)(C)C)cc4)c3C)CC2)CC1` (stereo not shown) [Example 211], the remaining activity at 10 µM is 5% and the Ki stood at 140 nM.
